The target of one test is T1, Human BOAT1 (Homo sapiens, UniProt Q695T7).
T1 construct: expressed in transfected cells
T1 sequence (Q695T7 1-634): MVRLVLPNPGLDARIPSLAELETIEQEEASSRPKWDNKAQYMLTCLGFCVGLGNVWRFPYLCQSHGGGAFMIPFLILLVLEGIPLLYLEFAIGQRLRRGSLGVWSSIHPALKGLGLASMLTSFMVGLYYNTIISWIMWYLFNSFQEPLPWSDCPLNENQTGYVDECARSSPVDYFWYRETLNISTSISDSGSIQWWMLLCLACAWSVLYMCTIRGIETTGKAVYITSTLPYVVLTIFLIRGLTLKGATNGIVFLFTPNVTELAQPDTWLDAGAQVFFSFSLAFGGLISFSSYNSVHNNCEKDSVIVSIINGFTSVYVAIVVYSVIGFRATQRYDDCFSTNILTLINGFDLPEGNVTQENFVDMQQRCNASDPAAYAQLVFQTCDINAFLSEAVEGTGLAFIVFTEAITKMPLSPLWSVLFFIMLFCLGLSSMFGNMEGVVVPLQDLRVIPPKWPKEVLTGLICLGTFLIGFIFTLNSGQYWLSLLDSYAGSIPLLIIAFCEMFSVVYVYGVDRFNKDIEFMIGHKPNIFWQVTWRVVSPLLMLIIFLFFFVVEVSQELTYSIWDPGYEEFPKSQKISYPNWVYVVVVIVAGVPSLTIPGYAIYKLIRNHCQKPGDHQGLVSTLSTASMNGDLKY
As to the kind of experiment: hBOAT1 inhibitory test (phenylalanine uptake). Type of test: cell-based. The settings on record: Human BOAT1 stable expression CHO cells, phenylalanine 0.25 mM, read-out: hB0AT1 IC50. A digest of the protocol: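 Human BOAT1 stably expressed in CHO cells (75000 cells/well) in HEPES-buffered NaCl/KCl/CaCl2/MgCl2 buffer with 0.01% BSA, compound at 0.5% DMSO, preincubated ≥30 min at ordinary temperature. Uptake of L-phenylalanine plus [3H]-L-phenylalanine (0.25 mM final) read by scintillation proximity; 100–200 min values analysed, non-specific uptake defined with […] reference inhibitor.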

Another test has as its target T2, hERG channel (Homo sapiens, UniProt Q12809).
T2 construct: host or cells: CHO cells
Kind of test: hERG channel inhibitory activity, whole-cell patch clamp (auto-patch clamp system). The class given is cell-based. The settings on record: read-out: hERG IC50. How it is done:
Evaluation of hERG (Human Ether-a-go-go Related Gene) Channel Inhibitory Activity
The hERG channel inhibitory activity of the compound of the present invention was measured using CHO cells (B′ SYS GmbH) forcibly expressing hERG channels involved in human rapidly active delayed rectifier potassium current (IKr) by the whole-cell patch clamp method using an auto-patch clamp system (SyncroPatch384PE).
Cell suspension, extracellular fluid, intracellular fluid, and measurement plate (NPC-384 plate) were placed in the auto-patch clamp system, and hERG current measurements were performed using the whole-cell patch clamp method. The voltage protocol was set to a holding potential of −80 mV, with a depolarizing pulse preceded by −90 mV (100 ms) and followed by −80 mV (100 ms).
The depolarizing pulse was […] (500 ms), and then the hERG peak current value obtained during the ramp phase was measured when the voltage was lowered to −80 mV over 100 ms. The protocol was applied at 5-second intervals for 5 minutes for each concentration.
SyncroPatch software (manufactured by Nanion) was used for data analysis. Four concentrations were applied incrementally for each test substance, and the average hERG Peak current value obtained from the last three stimuli of each applied concentration was used as the evaluation data. The IC50 value was calculated from the inhibition rate of the current at each concentration of each test substance relative to the pre-application value using Hill's equation (Hill equation) using the relevant software.
The same experiments were also performed using the example compounds described in WO 2023/145804 as comparative example compounds 1-4.
A general note: hERG is a cardiac potassium channel; its block is linked to QT prolongation.

Setting [1] is: [3H]-L-phenylalanine uptake, radioactivity after 100 to 200 min.

Like-named read-outs stand apart in the source and are kept apart here. A value given as a limit tells only on which side of the number the result lay.

T2 sequence (Q12809 whole entry): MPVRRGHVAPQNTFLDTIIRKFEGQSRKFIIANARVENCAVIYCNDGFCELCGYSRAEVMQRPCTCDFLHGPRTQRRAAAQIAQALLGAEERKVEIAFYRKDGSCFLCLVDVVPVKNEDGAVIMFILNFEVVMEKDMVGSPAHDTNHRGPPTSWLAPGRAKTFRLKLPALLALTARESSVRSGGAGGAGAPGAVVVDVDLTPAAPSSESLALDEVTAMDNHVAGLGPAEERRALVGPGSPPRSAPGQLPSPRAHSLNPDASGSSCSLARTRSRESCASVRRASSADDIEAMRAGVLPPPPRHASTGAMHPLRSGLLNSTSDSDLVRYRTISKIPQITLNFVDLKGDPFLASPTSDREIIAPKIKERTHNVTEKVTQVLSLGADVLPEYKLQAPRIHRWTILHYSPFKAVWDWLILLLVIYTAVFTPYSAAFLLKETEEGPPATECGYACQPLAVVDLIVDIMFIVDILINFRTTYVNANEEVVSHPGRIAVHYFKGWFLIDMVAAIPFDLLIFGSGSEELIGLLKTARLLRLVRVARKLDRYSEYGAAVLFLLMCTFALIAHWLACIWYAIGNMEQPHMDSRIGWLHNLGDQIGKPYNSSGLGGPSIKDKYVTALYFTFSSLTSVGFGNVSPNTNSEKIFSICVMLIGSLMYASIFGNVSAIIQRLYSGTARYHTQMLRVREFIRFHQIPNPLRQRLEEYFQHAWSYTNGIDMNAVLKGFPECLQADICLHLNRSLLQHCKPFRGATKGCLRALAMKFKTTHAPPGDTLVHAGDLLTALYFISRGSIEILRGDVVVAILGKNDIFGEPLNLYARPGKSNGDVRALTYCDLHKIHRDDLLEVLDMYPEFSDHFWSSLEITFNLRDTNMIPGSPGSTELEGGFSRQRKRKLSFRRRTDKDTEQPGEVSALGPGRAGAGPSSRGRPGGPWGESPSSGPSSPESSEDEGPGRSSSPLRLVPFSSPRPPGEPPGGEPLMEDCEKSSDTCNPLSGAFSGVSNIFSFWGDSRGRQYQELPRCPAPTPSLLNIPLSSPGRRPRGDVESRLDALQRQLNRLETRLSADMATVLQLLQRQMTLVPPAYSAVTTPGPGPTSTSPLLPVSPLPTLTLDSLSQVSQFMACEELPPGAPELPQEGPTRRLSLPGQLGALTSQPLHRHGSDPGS

For `CC1CN(C(=O)CNC(=O)/C=C/c2ccc(C(F)(F)F)cc2F)CCN1CCCC(=O)O` (centres unmarked) [I-231], the figures for the IC50 at Human BOAT1 (setting [1]) and at hERG channel were 234 nM and over 30 µM, respectively.

With `O=C(O)CCCN1CCN(C(=O)CNC(=O)/C=C/c2ccc(C(F)(F)F)cc2F)[C@@H](c2ccc(Br)cc2)C1` [I-232], the IC50 (commonly the concentration that inhibits the measured activity by half) on Human BOAT1 (setting [1]) was 30 nM; on hERG channel, 19.3 µM.

As for `O=C(O)CCCN1CCN(C(=O)CNC(=O)/C=C/c2ccc(C(F)(F)F)cc2F)C(c2ccccc2Cl)C1` (centres unmarked) [I-233], the results for the IC50 on Human BOAT1 (setting [1]) and at hERG channel were 609 nM and over 30 µM, respectively.

Turning to `O=C(O)CCCN1CCN(C(=O)CNC(=O)/C=C/c2ccc(C(F)(F)F)cc2F)C(c2ccc(F)cc2)C1` (centres unmarked) [I-237], the IC50 was 199 nM on Human BOAT1 (setting [1]) and over 30 µM at hERG channel.

For `O=C(O)CCCN1CCN(C(=O)CNC(=O)/C=C/c2ccc(C(F)(F)F)cc2F)C(c2cccc(Cl)c2)C1` (centres unmarked) [I-238], the IC50 at Human BOAT1 (setting [1]) is 97 nM; on hERG channel, over 30 µM.

For the compound `O=C(O)CCCN1CCN(C(=O)CNC(=O)/C=C/c2ccc(C(F)(F)F)cc2F)C(c2cccc(F)c2)C1` (centres unmarked) [I-239], the IC50 on Human BOAT1 (setting [1]) was 302 nM; on hERG channel, over 30 µM.

Consider `O=C(O)CCCN1CCN(C(=O)CNC(=O)/C=C/c2ccc(C(F)(F)F)cc2F)C(c2ccccc2F)C1` (centres unmarked) [I-240], for which the values for the IC50 at Human BOAT1 (setting [1]) and at hERG channel were 197 nM and over 30 µM, respectively.

In the case of `O=C(O)CCN1CCN(C(=O)CNC(=O)/C=C/c2ccc(C(F)(F)F)cc2F)C(c2ccccc2)C1` (centres unmarked) [I-241], the values for the IC50 on Human BOAT1 (setting [1]) and at hERG channel were 161 nM and over 30 µM, respectively.

For the compound `O=C(O)CCCCN1CCN(C(=O)CNC(=O)/C=C/c2ccc(C(F)(F)F)cc2F)C(c2ccccc2)C1` (centres unmarked) [I-242], the IC50 at Human BOAT1 (setting [1]) was 158 nM; at hERG channel, over 30 µM.

Consider `O=C(O)CCCN1CCN(C(=O)CNC(=O)/C=C/c2ccc(C(F)(F)F)cc2F)[C@@H](C(F)(F)F)C1` [I-243], for which the IC50 was 3700 nM at Human BOAT1 (setting [1]) and over 30 µM at hERG channel.

For the compound `O=C(O)CCCN1CCN(C(=O)CNC(=O)/C=C/c2ccc(C(F)(F)F)cc2F)[C@H](C(F)(F)F)C1` [I-244], the IC50 at Human BOAT1 (setting [1]) is 613 nM; at hERG channel it was over 30 µM.

In the case of `O=C(/C=C/c1ccc(C(F)(F)F)cc1F)NCC(=O)N1CCN(C[C@H]2C[C@H](C(=O)O)C2)CC1c1ccc(Cl)cc1` (some centres unmarked) [I-248], the IC50 at Human BOAT1 (setting [1]) was 147 nM; at hERG channel, over 30 µM.

Turning to `O=C(/C=C/c1ccc(C(F)(F)F)cc1F)NCC(=O)N1CCN(CC23CC(C(=O)O)(C2)C3)CC1c1ccc(Cl)cc1` (centres unmarked) [I-250], the IC50 at Human BOAT1 (setting [1]) is 506 nM; at hERG channel, over 30 µM.

As to `O=C(/C=C/c1ccc(C(F)(F)F)cc1F)NCC(=O)N1CCCC(c2cccc(C(=O)O)c2)C1` (centres unmarked) [I-255], the values for the IC50 at Human BOAT1 (phenylalanine uptake) and at hERG channel were 766 nM and over 30 µM, respectively.

Turning to `O=C(O)CCCN1CCN(C(=O)CNC(=O)/C=C/c2ccc(C(F)(F)F)cc2F)C(c2ccc(Cl)c(F)c2)C1` (centres unmarked) [I-257], the IC50 was 108 nM at Human BOAT1 (phenylalanine uptake) and 29.6 µM at hERG channel.

For `C[C@@H]1CN(C(=O)CNC(=O)/C=C/c2ccc(C(F)(F)F)cc2F)[C@@H](c2ccccc2)CN1CCCC(=O)O` [I-261], the results for the IC50 on Human BOAT1 (phenylalanine uptake) and at hERG channel were 30 nM and over 30 µM, respectively.

In the case of `C[C@@H]1CN(C(=O)CNC(=O)/C=C/c2ccc(C(F)(F)F)cc2F)[C@@H](c2ccc(Cl)cc2)CN1CCCC(=O)O` [I-337], the IC50 on Human BOAT1 (phenylalanine uptake) amounted to 31 nM; on hERG channel it was 15.5 µM.

Take `C[C@@H]1CN(C(=O)CNC(=O)/C=C/c2ccc(C(F)(F)F)cc2F)[C@@H](c2ccc(F)cc2)CN1CCCC(=O)O` [I-338]: the results for the IC50 on Human BOAT1 (phenylalanine uptake) and on hERG channel were 54 nM and over 30 µM, respectively.

`C[C@@H]1CN(C(=O)CNC(=O)/C=C/c2ccc(C(F)(F)F)cc2F)[C@@H](c2cccc(F)c2)CN1CCCC(=O)O` [I-340]: the figures for the IC50 at Human BOAT1 (phenylalanine uptake) and on hERG channel were 62 nM and over 30 µM, respectively.

Take `O=C(O)CCCN1C[C@H](c2ccccc2)N(C(=O)CNC(=O)/C=C/c2ccc(C(F)(F)F)cc2F)CC12CC2` [I-341]: the IC50 on Human BOAT1 (phenylalanine uptake) was 1680 nM; on hERG channel, over 30 µM.

For `CC(C)[C@@H]1CN(C(=O)CNC(=O)/C=C/c2ccc(C(F)(F)F)cc2F)[C@@H](c2ccccc2)CN1CCCC(=O)O` [I-342], the IC50 is 338 nM on Human BOAT1 (phenylalanine uptake) and over 30 µM on hERG channel.

Regarding `CC[C@@H]1CN(C(=O)CNC(=O)/C=C/c2ccc(C(F)(F)F)cc2F)[C@@H](c2ccccc2)CN1CCCC(=O)O` [I-343], the results for the IC50 on Human BOAT1 (phenylalanine uptake) and on hERG channel were 91 nM and over 30 µM, respectively.

In the case of `C[C@@H]1CN(C(=O)CNC(=O)/C=C/c2ccc(C(F)(F)F)cc2F)[C@@H](c2ccc(F)c(F)c2)CN1CCC(=O)O` [I-348], the IC50 on Human BOAT1 (phenylalanine uptake) is 45 nM; at hERG channel, over 30 µM.

Turning to `C[C@@H]1CN(C(=O)CNC(=O)/C=C/c2ccc(C(F)(F)F)cc2F)[C@@H](c2ccc(F)c(F)c2)CN1CCCC(=O)O` [I-349], the IC50 was 93 nM at Human BOAT1 (phenylalanine uptake) and over 30 µM at hERG channel.

Turning to `C[C@@H]1CN(C(=O)CNC(=O)/C=C/c2ccc(C(F)(F)F)cc2)[C@@H](c2ccc(F)c(F)c2)CN1CCCC(=O)O` [I-350], the IC50 on Human BOAT1 (phenylalanine uptake) was 184 nM; at hERG channel, over 30 µM.

As to `C[C@@H]1[C@H](c2ccccc2)N(C(=O)CNC(=O)/C=C/c2ccc(C(F)(F)F)cc2F)CCN1CCCC(=O)O` [I-353], the IC50 on Human BOAT1 (phenylalanine uptake) was 400 nM; at hERG channel, over 30 µM.

On to `Cc1ccc([C@H]2CN(CCCC(=O)O)[C@H](C)CN2C(=O)CNC(=O)/C=C/c2ccc(C(F)(F)F)cc2F)cc1` [I-383], for which the IC50 amounted to 64 nM at Human BOAT1 (setting [1]) and 15.2 µM at hERG channel.

Consider `C[C@@H]1CN(C(=O)CNC(=O)/C=C/c2ccc(C(F)(F)F)cc2F)[C@@H](c2cccc(C3CC3)c2)CN1CCC(=O)O` [I-384], for which the IC50 on Human BOAT1 (setting [1]) worked out at 31 nM; at hERG channel, 15.8 µM.

For the compound `Cc1cccc([C@H]2CN(CCCC(=O)O)[C@H](C)CN2C(=O)CNC(=O)/C=C/c2ccc(C(F)(F)F)cc2F)c1` [I-385], the IC50 at Human BOAT1 (setting [1]) amounted to 70 nM; at hERG channel, 21 µM.

Regarding `C[C@@H]1CN(C(=O)CNC(=O)/C=C/c2ccc(C(F)(F)F)cc2F)[C@@H](c2cccnc2)CN1CCCC(=O)O` [I-395], the IC50 at Human BOAT1 (phenylalanine uptake) is 636 nM; at hERG channel, over 30 µM.

For `C[C@@H]1CN(C(=O)CNC(=O)/C=C/c2ccc(C(F)(F)F)cc2F)[C@@H](c2ccc(Cl)s2)CN1CCC(=O)O` [I-396], the IC50 was 71 nM on Human BOAT1 (phenylalanine uptake) and over 30 µM on hERG channel.

With `[2H]C([2H])([2H])[C@@H]1CN(C(=O)CNC(=O)/C=C/c2ccc(C(F)(F)F)cc2F)[C@@H](c2ccccc2)CN1CCCC(=O)O` [I-397], the half-inhibitory concentration (IC50) at Human BOAT1 (phenylalanine uptake) is 75 nM; on hERG channel, over 30 µM.

On to `C[C@@H]1CN(C(=O)CNC(=O)/C=C/c2ccc(C(F)(F)F)cc2F)[C@@H](c2ccc3ccccc3c2)CN1CCCC(=O)O` [I-398], for which the IC50 at Human BOAT1 (phenylalanine uptake) came to 42 nM; at hERG channel it was 25.6 µM.

Take `Cc1noc([C@H]2CN(CCCC(=O)O)CCN2C(=O)CNC(=O)/C=C/c2ccc(C(F)(F)F)cc2F)n1` [I-401]: the IC50 on Human BOAT1 (phenylalanine uptake) is 2900 nM; at hERG channel, over 30 µM.

Values taken from patent publication US20260001849A1, “NOVEL B0AT1 INHIBITOR” (MITSUBISHI TANABE PHARMA CORPORATION, priority 2023, published 2026).
